The results in this text go back to patent publication US12473290B2, “Imidazopyridazine compounds useful as modulators of IL-12, IL-23 and/or IFN alpha responses” (BRISTOL-MYERS SQUIBB COMPANY, priority 2019, dated 2025).

Each structure is given as a SMILES string.

One may read the IC50 as the point on the concentration scale where inhibition reaches its midpoint.

A short description of test [1]: Kit225 T Cell Assay, IL-23-stimulated STAT-dependent luciferase reporter. As to conditions: Kit225 T cells, 20 ng/mL human recombinant IL-23, 5-6 hours, luciferase expression. In kind it is cell-based. On the procedure:
(§1) Kit225 T cells with a stably-integrated STAT-dependent luciferase reporter were plated in RPMI (Gibco) containing 10% heat-inactivated FBS (Gibco) and 100 U/mL PenStrep (Gibco). The cells were then stimulated with either 20 ng/mL human recombinant IL-23 or 200 U/mL human recombinant IFNα (PBL InterferonSource) for 5-6 hours. Luciferase expression was measured using the STEADY-GLO® Luciferase Assay System (Promega) according to the manufacturer's instructions. Inhibition data were calculated by comparison to no inhibitor control wells for 0% inhibition and non-stimulated control wells for 100% inhibition. Dose response curves were generated to determine the concentration required to inhibit 50% of cellular response (IC50) as derived by non-linear regression analysis.

Test [2] relates to IFNα Kit225 Reporter (Kit225 T cells with a stably-integrated STAT-dependent luciferase reporter, stimulated with IFNα). Put plainly: Kit225 T Cell Assay, IFNα-stimulated STAT-dependent luciferase reporter. In kind it is cell-based. The following applies: 200 U/mL human recombinant IFNα, 5-6 hours, luciferase expression. The procedure: as §1
On the technique in general: In a reporter assay the amount or activity of a reporter protein is the signal.

`C[C@@H](NC(=O)c1cccc(Nc2cc(NC34CC5CC(CC(O)(C5)C3)C4)nn3c(C#N)cnc23)n1)C(F)(F)F` [Example 41, 6-({3-cyano-6-[(3-hydroxyadamantan-1-yl)amino]imidazo[1,2-b]pyridazin-8-yl}amino)-N-[(2R)-1,1,1-trifluoropropan-2-yl]pyridine-2-carboxamide]: the IC50 in test [1] worked out at 110 nM; in test [2], 320 nM.
As for `CC(C)(CC(N)=O)NC(=O)c1cccc(Nc2cc(NC34CC5CC(CC(O)(C5)C3)C4)nn3c(C#N)cnc23)n1` [Example 42, 3-{[6-({3-cyano-6-[(3-hydroxyadamantan-1-yl)amino]imidazo[1,2-b]pyridazin-8-yl}amino)pyridin-2-yl]formamido}-3-methylbutanamide], the IC50 in test [1] was found to be 710 nM; in test [2] it was 640 nM.
In the case of `CC(C)Oc1nc(Nc2cc(NC3CCOCC3)nn3c(C#N)cnc23)ccc1C(=O)N1CCCC1` [Example 43, 6-[(oxan-4-yl)amino]-8-{[6-(propan-2-yloxy)-5-(pyrrolidine-1-carbonyl)pyridin-2-yl]amino}imidazo[1,2-b]pyridazine-3-carbonitrile], the IC50 in test [1] turned out to be 160 nM; in test [2], 450 nM.
The matching figures for `CN(C(=O)c1ccc(Nc2cc(NC3CCOCC3)nn3c(C#N)cnc23)nc1OCC(F)F)C1COC1` [Example 44, 6-({3-cyano-6-[(oxan-4-yl)amino]imidazo[1,2-b]pyridazin-8-yl}amino)-2-(2,2-difluoroethoxy)-N-methyl-N-(oxetan-3-yl)pyridine-3-carboxamide]: 240 nM and 860 nM.
With `N#Cc1cnc2c(Nc3ccc(C(=O)NCC4CCCO4)c(OCC(F)F)n3)cc(NC3CCOCC3)nn12` (centres unmarked) [Example 45, 6-({3-cyano-6-[(oxan-4-yl)amino]imidazo[1,2-b]pyridazin-8-yl}amino)-2-(2,2-difluoroethoxy)-N-[(oxolan-2-yl)methyl]pyridine-3-carboxamide], the IC50 in test [1] is 740 nM; in test [2], 260 nM.
As to `N#Cc1cnc2c(Nc3ccc(C(=O)N4CC[C@@H](C#N)C4)c(OCC(F)F)n3)cc(NC3CCOCC3)nn12` [Example 47, (3R)-1-[6-({3-cyano-6-[(oxan-4-yl)amino]imidazo[1,2-b]pyridazin-8-yl}amino)-2-(2,2-difluoroethoxy)pyridine-3-carbonyl]pyrrolidine-3-carbonitrile], the IC50 in test [1] amounted to 340 nM; in test [2] it was 160 nM.
For `CN(C)C1CCN(C(=O)c2ccc(Nc3cc(NC4CCOCC4)nn4c(C#N)cnc34)nc2OCC(F)F)C1` (centres unmarked) [Example 48, 8-{[6-(2,2-difluoroethoxy)-5-[3-(dimethylamino)pyrrolidine-1-carbonyl]pyridin-2-yl]amino}-6-[(oxan-4-yl)amino]imidazo[1,2-b]pyridazine-3-carbonitrile], the IC50 was found to be 740 nM in test [1] and 340 nM in test [2].
Consider `N#Cc1cnc2c(Nc3ccc(C(=O)N4CCCC4C(F)(F)F)c(OCC(F)F)n3)cc(NC3CCOCC3)nn12` (centres unmarked) [Example 49, 8-{[6-(2,2-difluoroethoxy)-5-[2-(trifluoromethyl)pyrrolidine-1-carbonyl]pyridin-2-yl]amino}-6-[(oxan-4-yl)amino]imidazo[1,2-b]pyridazine-3-carbonitrile], for which the values for the IC50 in test [1] and in test [2] were 160 nM and 220 nM, respectively.
For the molecule `CC(=O)NCc1ccc(-c2cccc(Nc3cc(NC4CCOCC4)nn4c(C#N)cnc34)n2)cc1` [Example 50, N-({4-[6-({3-cyano-6-[(oxan-4-yl)amino]imidazo[1,2-b]pyridazin-8-yl}amino)pyridin-2-yl]phenyl}methyl)acetamide], the IC50 in test [1] was 1100 nM; in test [2], 760 nM.
Consider `N#Cc1cnc2c(Nc3ccc(C(=O)NCC4CC4)cn3)cc(NCC3CC3)nn12` [Example 51, 6-({3-cyano-6-[(cyclopropylmethyl)amino]imidazo[1,2-b]pyridazin-8-yl}amino)-N-(cyclopropylmethyl)pyridine-3-carboxamide], for which the IC50 came out at 150 nM in test [1] and 160 nM in test [2].
